Experiments:
Assay type in all cases: biochemical
[1] = target: metalloelastase (MMP-12) (Homo sapiens, UniProt P39900); assay: MMP-12 enzyme inhibition assay (coumarin-labelled peptide substrate); details: read-out: IC50 MMP12
Method in brief: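 Recombinant human MMP-12 assayed per the MMP-9 protocol: Tris-HCl pH 7.6 buffer with NaCl, CaCl2, Brij 35; McaPLGLDpaAR substrate, compounds 100 μM–5.1 nM in duplicate, 2 h at 37° C. Fluorescence read at 405 nm (320 nm excitation) without stopping; IC50 from four-parameter fit.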

[2] = target: T1, gelatinase A (MMP-2) (Homo sapiens, UniProt P08253); assay: MMP-2 enzyme inhibition assay (coumarin-labelled peptide substrate); details: read-out: IC50 MMP2
T1 sequence (P08253 110-660): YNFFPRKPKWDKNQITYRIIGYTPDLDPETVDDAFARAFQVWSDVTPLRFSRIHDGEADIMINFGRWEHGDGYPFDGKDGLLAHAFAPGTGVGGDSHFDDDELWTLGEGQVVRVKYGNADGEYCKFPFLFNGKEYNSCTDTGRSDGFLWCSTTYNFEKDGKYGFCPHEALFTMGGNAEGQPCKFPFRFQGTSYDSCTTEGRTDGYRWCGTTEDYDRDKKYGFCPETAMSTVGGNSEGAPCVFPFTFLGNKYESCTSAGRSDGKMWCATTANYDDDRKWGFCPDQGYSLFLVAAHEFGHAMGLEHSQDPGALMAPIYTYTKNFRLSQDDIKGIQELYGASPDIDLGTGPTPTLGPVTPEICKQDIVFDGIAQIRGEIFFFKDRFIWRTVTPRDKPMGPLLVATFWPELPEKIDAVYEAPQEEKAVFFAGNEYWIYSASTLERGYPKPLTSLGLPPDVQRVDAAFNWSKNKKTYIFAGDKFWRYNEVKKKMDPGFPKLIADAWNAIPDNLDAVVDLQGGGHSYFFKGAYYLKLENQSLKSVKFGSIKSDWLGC
Method in brief: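 Recombinant human MMP-2, APMA-activated if necessary, run as for the MMP-9 protocol: McaPLGLDpaAR substrate (8 μM working dilution) in 100 mM Tris-HCl pH 7.6, 100 mM NaCl, 10 mM CaCl2, 0.05% Brij 35; ten 3-fold concentrations (100 μM–5.1 nM) in duplicate, 2 h at 37° C. Fluorescence ex 320/em 405 nm, unstopped; IC50 from four-parameter fit.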

[3] = target: MMP-14 (Homo sapiens, UniProt P50281); assay: MMP-14 enzyme inhibition assay (coumarin-labelled peptide substrate); details: read-out: percentage inhibition MMP14
Method in brief: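 Recombinant human enzyme, APMA-activated if necessary, was incubated with McaPLGLDpaAR substrate and compound (10 concentrations in duplicate, 100 μM to 5.1 nM) in Tris-HCl pH 7.6 with NaCl, CaCl2 and Brij 35 for 2 h at 37 °C. Fluorescence was read at 320/405 nm, and IC50 was taken from a four-parameter fit.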

Sequence of metalloelastase (MMP-12) (P39900 106-470): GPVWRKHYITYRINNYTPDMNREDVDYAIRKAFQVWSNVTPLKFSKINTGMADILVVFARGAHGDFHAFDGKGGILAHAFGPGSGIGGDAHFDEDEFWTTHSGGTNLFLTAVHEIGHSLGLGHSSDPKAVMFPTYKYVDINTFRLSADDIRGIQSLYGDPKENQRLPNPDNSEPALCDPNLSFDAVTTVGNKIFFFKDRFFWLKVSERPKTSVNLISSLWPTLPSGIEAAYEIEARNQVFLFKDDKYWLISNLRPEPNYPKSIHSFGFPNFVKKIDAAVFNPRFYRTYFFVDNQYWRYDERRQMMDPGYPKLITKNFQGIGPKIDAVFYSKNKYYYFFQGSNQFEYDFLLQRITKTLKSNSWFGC

SMILES | IC50 [1] | IC50 [2] | inhibition at 5 µM [3] | inhibition at 0.1 µM [3]
O=CN(O)C(CCC(F)(F)F)CS(=O)(=O)N1CCc2ccc(Cl)cc2C1 (stereo not shown) [Example 76, N-(1-{[(7-chloro-3,4-dihydroisoquinolin-2(1H)-yl)-sulfonyl]methyl}-4,4,4-trifluorobutyl)-N-hydroxyformamide] | 0.022 µM | 0.082 µM | 59% | –
O=CN(O)C(CS(=O)(=O)N1CCc2cc(Cl)c(Cl)cc2C1)C1CCCC1 (stereo not shown) [Example 77, N-{1-cyclopentyl-2-[(6,7-dichloro-3,4-dihydroisoquinolin-2(1H)-yl)sulfonyl]ethyl}-N-hydroxyformamide] | 0.0051 µM | 0.031 µM | 78% | –
O=CN(O)C(CS(=O)(=O)N1CCc2ccc(-c3ccncc3)cc2C1)C1CCCC1 (stereo not shown) [Example 79, N-{1-cyclopentyl-2-[(7-pyridin-4-yl-3,4-dihydroisoquinolin-2(1H)-yl)sulfonyl]ethyl}-N-hydroxyformamide] | 0.002 µM | 0.067 µM | 72% | 19%
O=CN(O)C(CS(=O)(=O)N1Cc2ccc(F)cc2C1)C1CCCC1 (stereo not shown) [Example 80, N-{1-cyclopentyl-2-[(5-fluoro-1,3-dihydro-2H-isoindol-2-yl)sulfonyl]ethyl}-N-hydroxyformamide] | 0.045 µM | 0.474 µM | 15% | –
CC(C)c1ccc2c(c1)CCN(S(=O)(=O)CC(C1CCCC1)N(O)C=O)C2 (stereo not shown) [Example 81, N-{1-cyclopentyl-2-[(6-isopropyl-3,4-dihydroisoquinolin-2(1H)-yl)sulfonyl]ethyl}-N-hydroxyformamide] | 0.0031 µM | 0.063 µM | 87% | 0%
O=CN(O)C(CS(=O)(=O)N1CCc2ccc(C(F)(F)F)cc2C1)C1CCCC1 (stereo not shown) [Example 82, N-(1-cyclopentyl-2-{[7-(trifluoromethyl)-3,4-dihydro-isoquinolin-2(1H)-yl]sulfonyl}ethyl)-N-hydroxyformamide] | 0.026 µM | 0.348 µM | 20% | –
O=CN(O)C(CS(=O)(=O)N1CCc2ccc(C(F)(F)F)cc2C1)C1CC1 (stereo not shown) [Example 83, N-(1-cyclopropyl-2-{[7-(trifluoromethyl)-3,4-dihydroisoquinolin-2(1H)-yl]sulfonyl}ethyl)-N-hydroxyformamide] | 0.052 µM | 0.686 µM | 6% | –
CC(C)c1ccc2c(c1)CCN(S(=O)(=O)CC(C1CC1)N(O)C=O)C2 (stereo not shown) [Example 85, N-{1-cyclopropyl-2-[(6-isopropyl-3,4-dihydroisoquinolin-2(1H)-yl)sulfonyl]ethyl}-N-hydroxyformamide] | 0.0049 µM | 0.078 µM | 95% | 14%
O=CN(O)C(CCc1cccnc1)CS(=O)(=O)N1CCc2ccc(Cl)cc2C1 (stereo not shown) [Example 86, N-(1-{[(7-chloro-3,4-dihydroisoquinolin-2(1H)-yl)sulfonyl]methyl}-3-pyridin-3-ylpropyl)-N-hydroxyformamide] | 0.0098 µM | 0.021 µM | 100% | 12%

Source: patent publication US7879876B2, “Sulfonamide derivatives and use thereof for the modulation of metalloproteinases” (Merck Serono SA, priority 2005, dated 2011)
